Drawing on US20230293535A1, “ERBB/BTK INHIBITORS” (Dizal (Jiangsu) Pharmaceutical Co., Ltd., priority 2018, published 2023), this text covers GI50 and IC50 for nine compounds.

Structures are written as SMILES. Where a name gives a salt, the structure may show the parent alone. Read-outs that look alike come from different tables or passages of the source.

Common to all, as to type: cell-based
In assay [1] the test system is Her2 exon 20 insertion YVMA transduced NIH-3T3 cell line. The assay can be described thus: Cell proliferation, Her2 YVMAins NIH-3T3 (CellTiter-Glo, 72 h).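 Note: viable cells quantified by ATP luminescence, growth over a day-zero baseline plate expressed as percent of DMSO control growth, compound dilution series in 10% FBS medium.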 The conditions noted are these: Mus musculus, NIH3T3, 72 h, Her2 YVMAins cells, 72 h proliferation; read-out: Her2 Exon 20 YVMA insertion GI50. (In general: Cellular ATP, detected with luciferase, serves as a proxy for viable cell number.)

In assay [2] the test system is NCI-H1975 EGFR L858R/T790M cells. Briefly: Cell proliferation, NCI-H1975 EGFR L858R/T790M (CellTiter-Glo, 72 h).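 Note: viable cells quantified by luciferase-based ATP luminescence, proliferation expressed relative to DMSO-treated wells (100%) after subtracting a parallel plate read at the time of dosing.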 As to conditions: Homo sapiens, NCI-H1975, 72 h.
For assay [3], the target named is T1, human EGFR exon 20 H773_V774insNPH (Homo sapiens, UniProt P00533, INS773NPH).
T1 construct: host or cells: Ba/F3
T1 sequence (P00533 with tags, fused parts or gaps INS773NPH): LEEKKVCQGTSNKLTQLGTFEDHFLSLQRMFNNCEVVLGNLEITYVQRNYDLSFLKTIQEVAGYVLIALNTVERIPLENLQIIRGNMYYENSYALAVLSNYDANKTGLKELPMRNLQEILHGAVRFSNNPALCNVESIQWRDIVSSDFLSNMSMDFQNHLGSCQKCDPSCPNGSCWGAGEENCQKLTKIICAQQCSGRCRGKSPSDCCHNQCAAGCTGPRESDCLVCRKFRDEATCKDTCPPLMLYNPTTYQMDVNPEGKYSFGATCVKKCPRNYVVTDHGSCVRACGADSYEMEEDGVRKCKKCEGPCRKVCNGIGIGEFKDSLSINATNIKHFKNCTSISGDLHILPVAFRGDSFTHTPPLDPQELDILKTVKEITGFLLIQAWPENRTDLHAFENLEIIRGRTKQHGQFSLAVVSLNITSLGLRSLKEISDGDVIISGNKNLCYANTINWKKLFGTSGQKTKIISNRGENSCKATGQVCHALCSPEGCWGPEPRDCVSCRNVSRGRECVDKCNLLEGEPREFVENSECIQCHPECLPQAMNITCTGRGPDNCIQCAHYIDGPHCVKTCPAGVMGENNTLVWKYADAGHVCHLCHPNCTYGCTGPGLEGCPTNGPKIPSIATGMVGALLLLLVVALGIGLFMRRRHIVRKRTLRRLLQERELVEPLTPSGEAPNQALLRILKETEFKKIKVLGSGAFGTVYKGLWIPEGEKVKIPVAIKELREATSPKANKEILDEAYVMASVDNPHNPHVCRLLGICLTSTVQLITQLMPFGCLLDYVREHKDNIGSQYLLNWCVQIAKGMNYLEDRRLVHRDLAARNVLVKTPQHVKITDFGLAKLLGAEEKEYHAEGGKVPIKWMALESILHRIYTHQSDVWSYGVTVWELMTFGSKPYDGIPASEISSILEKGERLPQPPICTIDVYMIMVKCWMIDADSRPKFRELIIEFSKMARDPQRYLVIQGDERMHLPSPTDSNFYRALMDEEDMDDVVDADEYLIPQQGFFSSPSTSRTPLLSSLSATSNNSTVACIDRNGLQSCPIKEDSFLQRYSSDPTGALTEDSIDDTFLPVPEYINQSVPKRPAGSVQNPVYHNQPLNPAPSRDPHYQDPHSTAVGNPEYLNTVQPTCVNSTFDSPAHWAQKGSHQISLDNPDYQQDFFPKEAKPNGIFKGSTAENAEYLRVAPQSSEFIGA
Briefly: EGFR Exon20 NPH insertion cellular phosphorylation inhibition (MSD pEGFR Y1068/total EGFR).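 Note: IL3-independent Ba/F3 cells with constitutively phosphorylated EGFR, compound exposure at 37 °C under 5% CO2, electrochemiluminescent MSD measurement of the p-EGFR to total EGFR ratio.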 The conditions noted are these: Ba/F3 EGFR NPH ins cells, 4 h compound, p-EGFR(Y1068)/total EGFR.

For a further assay, the system named is Ba/F3 EGFR NPH ins cells. Briefly: Cell proliferation, Ba/F3 EGFR NPH ins (CellTiter-Glo, 72 h).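 Note: IL3-independent cells carrying constitutively phosphorylated EGFR, compound dilution series, viable cells quantified by ATP luminescence, growth relative to DMSO wells after subtracting pre-dosing (day 0) baseline.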 As to conditions: Ba/F3 EGFR, 72 h.
The target of another assay is T2, WT EGFR (Homo sapiens, UniProt P00533).
T2 construct: host or cells: A-431
T2 sequence (P00533 25-1210): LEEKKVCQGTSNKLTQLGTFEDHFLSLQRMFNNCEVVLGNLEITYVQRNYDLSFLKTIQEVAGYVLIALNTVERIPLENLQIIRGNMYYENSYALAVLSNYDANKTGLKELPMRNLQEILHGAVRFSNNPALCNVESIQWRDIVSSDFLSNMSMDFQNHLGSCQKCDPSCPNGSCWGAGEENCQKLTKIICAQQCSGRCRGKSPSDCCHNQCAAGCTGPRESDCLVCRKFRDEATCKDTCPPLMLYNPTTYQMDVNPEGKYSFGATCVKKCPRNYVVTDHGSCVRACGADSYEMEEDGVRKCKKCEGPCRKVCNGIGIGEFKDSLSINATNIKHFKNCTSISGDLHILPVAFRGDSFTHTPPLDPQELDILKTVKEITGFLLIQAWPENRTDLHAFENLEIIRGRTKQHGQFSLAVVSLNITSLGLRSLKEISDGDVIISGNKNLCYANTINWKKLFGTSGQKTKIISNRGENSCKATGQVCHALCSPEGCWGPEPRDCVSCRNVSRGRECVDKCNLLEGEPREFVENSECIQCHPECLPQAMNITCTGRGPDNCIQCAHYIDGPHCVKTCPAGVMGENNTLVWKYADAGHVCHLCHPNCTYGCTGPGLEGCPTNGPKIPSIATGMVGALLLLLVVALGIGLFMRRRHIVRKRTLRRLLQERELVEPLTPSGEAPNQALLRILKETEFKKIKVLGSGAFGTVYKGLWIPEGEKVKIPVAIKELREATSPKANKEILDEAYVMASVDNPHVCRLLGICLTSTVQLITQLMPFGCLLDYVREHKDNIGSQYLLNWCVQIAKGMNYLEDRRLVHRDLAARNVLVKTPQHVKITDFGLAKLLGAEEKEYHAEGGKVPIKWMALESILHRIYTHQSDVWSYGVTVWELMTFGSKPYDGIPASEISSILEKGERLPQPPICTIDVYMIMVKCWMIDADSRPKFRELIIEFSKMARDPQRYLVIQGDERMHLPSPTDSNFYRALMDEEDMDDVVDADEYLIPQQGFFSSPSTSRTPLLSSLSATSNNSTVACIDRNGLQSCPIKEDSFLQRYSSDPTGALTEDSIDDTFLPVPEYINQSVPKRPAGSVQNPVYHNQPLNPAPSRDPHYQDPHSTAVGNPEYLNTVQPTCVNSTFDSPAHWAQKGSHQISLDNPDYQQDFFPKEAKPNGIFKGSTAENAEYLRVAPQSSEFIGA
Briefly: WT EGFR cellular phosphorylation inhibition in A-431 (hEGF stimulated, MSD).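 Note: electrochemiluminescence read-out of EGFR Tyr1068 phosphorylation expressed as ratio to total EGFR, cells kept in medium with 1% FBS, compounds tested as a concentration series.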 As to conditions: A431 cells, 4 h compound, then 100 ng/ml hEGF 10 min.

The test system of another assay is WT EGFR cell line A-431. The assay can be described thus: Cell proliferation, WT EGFR A431 (CellTiter-Glo, 72 h).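 Note: proliferation from a luminescent ATP viability signal, expressed as 100 × (treated minus time-zero plate) over (DMSO control minus time-zero plate), cells grown with 10% FBS.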 As to conditions: Homo sapiens, A-431, 72 h.
For a further assay, the target named is T3, EGFR L858R&T790M (Homo sapiens, UniProt P00533, L858R/T790M).
T3 construct: host or cells: NCI-H1975
T3 sequence (P00533 25-1210 T790M/L858R): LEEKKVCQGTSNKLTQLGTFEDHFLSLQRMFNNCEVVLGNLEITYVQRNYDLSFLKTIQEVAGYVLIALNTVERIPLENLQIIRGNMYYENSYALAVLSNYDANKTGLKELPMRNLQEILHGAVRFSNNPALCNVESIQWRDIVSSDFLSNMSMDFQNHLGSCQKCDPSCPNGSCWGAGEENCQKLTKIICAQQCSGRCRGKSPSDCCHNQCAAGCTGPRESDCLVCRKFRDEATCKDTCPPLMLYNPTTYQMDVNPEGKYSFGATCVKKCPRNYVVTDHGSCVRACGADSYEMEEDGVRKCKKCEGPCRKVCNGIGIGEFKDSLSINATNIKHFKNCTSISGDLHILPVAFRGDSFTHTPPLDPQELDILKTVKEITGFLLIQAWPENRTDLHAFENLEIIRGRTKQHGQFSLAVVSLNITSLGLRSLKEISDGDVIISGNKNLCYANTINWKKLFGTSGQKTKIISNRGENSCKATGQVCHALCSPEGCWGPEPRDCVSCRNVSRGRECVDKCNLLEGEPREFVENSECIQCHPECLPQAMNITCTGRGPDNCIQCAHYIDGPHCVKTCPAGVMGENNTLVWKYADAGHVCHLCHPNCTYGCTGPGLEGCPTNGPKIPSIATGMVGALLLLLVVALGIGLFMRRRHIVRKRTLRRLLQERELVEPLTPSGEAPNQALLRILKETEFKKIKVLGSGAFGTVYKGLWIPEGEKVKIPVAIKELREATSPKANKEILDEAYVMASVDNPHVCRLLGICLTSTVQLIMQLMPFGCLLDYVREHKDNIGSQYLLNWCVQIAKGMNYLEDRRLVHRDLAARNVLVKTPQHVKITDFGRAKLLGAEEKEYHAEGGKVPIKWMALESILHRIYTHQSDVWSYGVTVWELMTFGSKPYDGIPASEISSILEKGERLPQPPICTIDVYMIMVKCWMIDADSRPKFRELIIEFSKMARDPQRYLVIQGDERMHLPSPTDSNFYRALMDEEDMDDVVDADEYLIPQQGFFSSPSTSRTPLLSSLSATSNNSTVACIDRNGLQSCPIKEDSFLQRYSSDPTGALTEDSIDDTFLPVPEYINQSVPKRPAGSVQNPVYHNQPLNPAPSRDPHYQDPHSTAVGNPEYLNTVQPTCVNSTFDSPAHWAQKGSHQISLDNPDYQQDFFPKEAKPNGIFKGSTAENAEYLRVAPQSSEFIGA
Briefly: EGFR L858R and T790M cellular phosphorylation inhibition in NCI-H1975 (MSD).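 Note: phosphorylated and total EGFR detected by electrochemiluminescence, cells exposed to compound in medium containing 1% FBS at 37 °C.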 The conditions noted are these: NCI-H1975 cells, 4 h compound, p-EGFR(Y1068)/total EGFR; read-out: EGFR L858R and T790M mutation IC50.

Another assay relates to Ba/F3 EGFR ASV ins cells. Briefly: Cell proliferation, Ba/F3 EGFR ASV ins (CellTiter-Glo, 72 h).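 Note: IL3-independent Ba/F3 cells transduced with EGFR V769_D770insASV, cellular ATP luminescence after compound exposure, growth relative to DMSO control with the day-0 baseline reading subtracted.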 The conditions noted are these: Ba/F3 EGFR, 72 h.
Assay [4] deals with T4, human EGFR exon 20 V769_D770insASV (Homo sapiens, UniProt P00533, INS769ASV).
T4 construct: expressed in transfected cells; host or cells: Ba/F3 (DSMZ ACC-300), lentiviral transduction, puromycin selection, IL3 depletion
Briefly: EGFR Exon20 ASV insertion cellular phosphorylation inhibition (MSD pEGFR Y1068/total EGFR).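 Note: electrochemiluminescent readout on an MSD SECTOR Imager, IL3-independent transduced cells in medium with 1% FBS, compound concentration series at 37 °C and 5% CO2.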 The conditions noted are these: Ba/F3 EGFR ASV ins cells, 4 h compound, p-EGFR(Y1068)/total EGFR.

For assay [5], the target named is T5, human Her2 exon 20 insertion mutation YVMA (Homo sapiens, UniProt P04626, INS775YVMA).
T5 construct: expressed in transfected cells; host or cells: NIH-3T3, lentiviral transduction, puromycin selection
T5 sequence (P04626 with tags, fused parts or gaps INS775YVMA): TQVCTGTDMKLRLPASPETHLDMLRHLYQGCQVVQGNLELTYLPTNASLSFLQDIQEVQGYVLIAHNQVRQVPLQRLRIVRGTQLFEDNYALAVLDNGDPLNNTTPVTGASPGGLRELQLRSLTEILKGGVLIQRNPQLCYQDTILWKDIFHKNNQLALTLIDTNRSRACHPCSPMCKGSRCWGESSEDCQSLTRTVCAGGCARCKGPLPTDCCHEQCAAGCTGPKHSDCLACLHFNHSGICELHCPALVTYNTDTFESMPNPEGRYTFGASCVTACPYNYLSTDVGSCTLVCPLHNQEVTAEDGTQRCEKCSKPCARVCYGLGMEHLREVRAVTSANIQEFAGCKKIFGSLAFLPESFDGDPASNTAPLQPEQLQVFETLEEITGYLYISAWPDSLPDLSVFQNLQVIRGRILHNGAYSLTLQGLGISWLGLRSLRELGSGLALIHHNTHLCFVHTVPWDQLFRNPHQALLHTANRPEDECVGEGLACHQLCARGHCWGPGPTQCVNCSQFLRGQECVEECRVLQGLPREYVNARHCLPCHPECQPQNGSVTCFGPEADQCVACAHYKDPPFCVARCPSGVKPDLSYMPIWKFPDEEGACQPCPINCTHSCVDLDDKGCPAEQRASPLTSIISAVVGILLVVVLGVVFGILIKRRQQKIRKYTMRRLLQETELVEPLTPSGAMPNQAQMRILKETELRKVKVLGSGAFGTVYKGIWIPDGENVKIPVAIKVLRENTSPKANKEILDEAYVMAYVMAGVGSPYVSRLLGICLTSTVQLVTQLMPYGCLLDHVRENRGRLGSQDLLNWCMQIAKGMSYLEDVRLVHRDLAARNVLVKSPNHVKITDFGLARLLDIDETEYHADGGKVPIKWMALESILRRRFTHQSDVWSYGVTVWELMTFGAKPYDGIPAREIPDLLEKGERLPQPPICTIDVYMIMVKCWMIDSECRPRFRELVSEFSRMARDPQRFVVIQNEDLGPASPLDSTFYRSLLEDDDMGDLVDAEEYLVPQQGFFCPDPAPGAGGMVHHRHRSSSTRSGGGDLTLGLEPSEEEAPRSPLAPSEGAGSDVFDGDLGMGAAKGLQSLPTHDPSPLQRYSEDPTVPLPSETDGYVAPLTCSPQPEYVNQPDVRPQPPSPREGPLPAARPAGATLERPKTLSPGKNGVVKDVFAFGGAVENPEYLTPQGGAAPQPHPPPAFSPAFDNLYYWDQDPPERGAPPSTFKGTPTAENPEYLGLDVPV
The assay can be described thus: Her2 Exon 20 YVMA insertion cellular phosphorylation inhibition (MSD p-Her2 Y1248/total Her2).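 Note: lentivirally transduced NIH-3T3 cells in 1% FBS medium, electrochemiluminescent MSD read-out, graded compound concentrations at 37 °C.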 The conditions noted are these: Her2 YVMAins cells, 4 h compound.

Another assay relates to OCI-LY-10 cells. Briefly: BTK (wt) cell proliferation, OCI-LY-10 (CellTiter-Glo, 72 h).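 Note: viable cells quantified via cellular ATP luminescence, proliferation given as percent of DMSO control after subtracting a duplicate plate read at time of dosing.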 As to conditions: Homo sapiens, OCI-Ly10, 72 h, OCI-LY-10 cells, 72 h, CellTiter-Glo; read-out: BTK WT OCI-LY-10 GI50.
A further assay has as its system TMD-8 cells. Briefly: BTK (wt) cell proliferation, TMD-8 (CellTiter-Glo, 72 h).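 Note: viable cells quantified by ATP-based luminescence, proliferation expressed as percent of DMSO control after subtracting a time-zero baseline plate read at dosing.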 As to conditions: Homo sapiens, TMD8, 72 h, TMD-8 cells, 72 h, CellTiter-Glo; read-out: BTK WT TMD-8 GI50.
In the next assay the test system is Ri-1 cells. The assay can be described thus: BTK (wt) cell proliferation, Ri-1 (CellTiter-Glo, 72 h).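 Note: viable cells quantified as cellular ATP luminescence, proliferation normalized to a time-zero plate and the DMSO control, compounds tested across a dilution series.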 As to conditions: Ri-1, 72 h, Ri-1 cells, 72 h, CellTiter-Glo; read-out: BTK WT Ri-1 GI50.
The next assay relates to DB cells. The assay can be described thus: BTK (wt) cell proliferation, DB (CellTiter-Glo, 72 h).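 Note: DB cells in 384-well plates given a dilution series of compound, viable cells read by ATP luminescence, growth expressed versus DMSO control after subtracting a time-zero plate reading.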 The conditions noted are these: Homo sapiens, DB, DB cells, CellTiter-Glo, read-out: Non-BCR activated DB GI50.
Where [6] appears, read: NCI-H1975, 72 h proliferation, read-out: EGFR L858R and T790M mutation GI50.
Setting [7] is: Ba/F3 EGFR NPH ins, 72 h proliferation, read-out: EGFR Exon20 NPH insertion GI50.
Where [8] appears, read: A431, 72 h proliferation, read-out: EGFR WT A431 GI50.
Where [9] appears, read: Ba/F3 EGFR ASV ins, 72 h proliferation, read-out: EGFR Exon20 ASV insertion GI50.

In the case of `C=CC(=O)Nc1cc(Nc2ncnc(Nc3ccccc3C(C)(C)O)n2)c(OC)cc1N1CCC[C@@H](N(C)C)C1` [Compound 1, (R)-N-(2-(3-(dimethylamino)piperidin-1-yl)-5-(4-(2-(2-hydroxypropan-2-yl)phenylamino)-1,3,5-triazin-2-ylamino)-4-methoxyphenyl)acrylamide], the GI50 (in general, the concentration that inhibits growth by half) in assay [1] came to 905 nM; in [2] (setting [6]), 282 nM; in the assay on Ba/F3 EGFR NPH ins cells (setting [7]), 999 nM; in the assay on WT EGFR cell line A-431 (setting [8]), 334 nM; with Ba/F3 EGFR ASV ins cells (setting [9]), 926 nM. The IC50 – broadly, the concentration that gives 50% inhibition – in assay [3] was 423 nM; against WT EGFR it was 599 nM; on EGFR L858R&T790M, 5.2 nM; in assay [4], 386 nM; in assay [5], 318 nM.

`COc1cc(N(C)CCN(C)C)c(NC(=O)/C=C/CN(C)C)cc1Nc1ncnc(Nc2cc(F)c(F)cc2C(C)(C)O)n1` [Compound 5, (E)-N-(5-(4-(4,5-difluoro-2-(2-hydroxypropan-2-yl)phenylamino)-1,3,5-triazin-2-ylamino)-2-((2-(dimethylamino)ethyl)(methyl)amino)-4-methoxypheny 1)-4-(dimethylamino)but-2-enamide]: the GI50 is 68.9 nM in assay [1]; 114 nM in assay [2] (setting [6]); 461 nM with Ba/F3 EGFR NPH ins cells (setting [7]); 117 nM in the assay with WT EGFR cell line A-431 (setting [8]); 234 nM in the assay on Ba/F3 EGFR ASV ins cells (setting [9]). Also, the half-maximal inhibitory concentration (IC50) in assay [3] amounted to 271 nM; against WT EGFR, 90.3 nM; on EGFR L858R&T790M, 6.3 nM; in [4], 170 nM; in [5], 36.2 nM.

In the case of `C=CC(=O)Nc1cc(Nc2ncnc(Nc3cc(F)c(F)cc3C(C)(C)O)n2)c(OC)cc1N1CC[C@H]2CN(C)C[C@H]21` [Compound 25, N-(5-(4-(4,5-difluoro-2-(2-hydroxypropan-2-yl)phenylamino)-1,3,5-triazin-2-ylamino)-4-methoxy-2-((3aS,6aS)-5-methylhexahydropyrrolo[3,4-b]pyrrol-1(2H)-yl)phenyl) acrylamide], the GI50 worked out at 989 nM in [1]; 165 nM in [2] (setting [6]); 618 nM with Ba/F3 EGFR NPH ins cells (setting [7]); 329 nM in the assay on WT EGFR cell line A-431 (setting [8]); 552 nM with Ba/F3 EGFR ASV ins cells (setting [9]). The IC50 in assay [3] is 376 nM; at WT EGFR it was 838 nM; on EGFR L858R&T790M, 7.9 nM; in assay [4], 388 nM; in [5], 534 nM.

As to `C=CC(=O)Nc1cc(Nc2ncnc(Nc3cc(Cl)c(F)cc3C(C)(C)O)n2)c(OC)cc1N(C)CCN1CCC[C@@H]1C` [Compound 42, (S)-N-(5-(4-(5-chloro-4-fluoro-2-(2-hydroxypropan-2-yl)phenylamino)-1,3,5-triazin-2-ylamino)-4-methoxy-2-(methyl(2-(2-methylpyrrolidin-1-yl)ethyl)amino)phenyl) acrylamide], the GI50 in assay [1] was 195 nM; in [2] (setting [6]) it was 8.5 nM; in the assay with Ba/F3 EGFR NPH ins cells (setting [7]) it was 137 nM; in the assay on WT EGFR cell line A-431 (setting [8]) it was 53.2 nM; in the assay on Ba/F3 EGFR ASV ins cells (setting [9]), 144 nM. In addition, the IC50 in assay [3] is 35.8 nM; on WT EGFR, 133 nM; on EGFR L858R&T790M, 1.8 nM; in assay [4], 63.3 nM; in [5], 33.9 nM.

For `C=CC(=O)Nc1cc(Nc2ncnc(Nc3cc(F)c(F)cc3C(C)(O)CC)n2)c(OC)cc1N1CC[C@H]2CN(C)C[C@H]21` (stereo partly drawn) [Compound 50, N-(5-(4-(4,5-difluoro-2-(2-hydroxybutan-2-yl)phenylamino)-1,3,5-triazin-2-ylamino)-4-methoxy-2-((3 aS, 6aS)-5-methylhexahydropyrrolo[3,4-b]pyrrol-1 (2H)-yl)phenyl) acrylamide], the concentration for 50% growth inhibition (GI50) came out at 1080 nM in assay [1]; 30 nM in [2] (setting [6]); 802 nM in the assay on Ba/F3 EGFR NPH ins cells (setting [7]); 277 nM in the assay on WT EGFR cell line A-431 (setting [8]); 449 nM with Ba/F3 EGFR ASV ins cells (setting [9]). The IC50 stood at 2630 nM in assay [3]; 1110 nM on WT EGFR; 19 nM at EGFR L858R&T790M; 308 nM in [4]; 382 nM in [5].

Regarding `C=CC(=O)Nc1cc(Nc2ncnc(Nc3cc(Cl)c(F)cc3C(C)(O)CC)n2)c(OC)cc1N1CCC[C@H]1CN(C)C` (stereo partly drawn) [Compound 64, N-(5-(4-(5-chloro-4-fluoro-2-(2-hydroxybutan-2-yl)phenylamino)-1,3,5-triazin-2-ylamino)-2-((S)-2-((dimethylamino)methyl)pyrrolidin-1-yl)-4-methoxyphenyl)acrylamide], the 50% growth inhibitory concentration (GI50) in assay [1] was 640 nM; in assay [2] (setting [6]) it was 24.2 nM; with Ba/F3 EGFR NPH ins cells (setting [7]), 359 nM; with WT EGFR cell line A-431 (setting [8]), 220 nM; in the assay with Ba/F3 EGFR ASV ins cells (setting [9]), 395 nM. Besides, the IC50 was 267 nM in assay [3]; 555 nM on WT EGFR; 7.1 nM on EGFR L858R&T790M; 240 nM in assay [4]; 143 nM in assay [5].

For the compound `C=CC(=O)Nc1cc(Nc2ncnc(Nc3cc(Cl)c(F)cc3C(C)(C)O)n2)c(OC)cc1N1CCC[C@H]1CN(C)C` [Compound 65, (S)-N-(5-(4-(5-chloro-4-fluoro-2-(2-hydroxypropan-2-yl)phenylamino)-1,3,5-triazin-2-ylamino)-2-(2-((dimethylamino)methyl)pyrrolidin-1-yl)-4-methoxyphenyl)acrylamide], the 50% growth inhibitory concentration (GI50) is 776 nM in assay [1]; 29.6 nM in assay [2] (setting [6]); 382 nM in the assay on Ba/F3 EGFR NPH ins cells (setting [7]); 234 nM with WT EGFR cell line A-431 (setting [8]); 484 nM in the assay on Ba/F3 EGFR ASV ins cells (setting [9]). Moreover, the IC50 was 315 nM in assay [3]; 479 nM on WT EGFR; 7.9 nM at EGFR L858R&T790M; 358 nM in assay [4]; 188 nM in assay [5].

As to `C=CC(=O)Nc1cc(Nc2ncc(OC)c(Nc3cc(Cl)c(F)cc3C(C)(C)O)n2)c(OC)cc1N(C)CCN(C)C` [Compound 81, N-(5-(4-(5-chloro-4-fluoro-2-(2-hydroxypropan-2-yl)phenylamino)-5-methoxypyrimidin-2-ylamino)-2-((2-(dimethylamino)ethyl)(methyl)amino)-4-methoxyphenyl)acrylamide], the GI50 was found to be 354 nM in assay [1]; 4.6 nM in assay [2] (setting [6]); 136 nM in the assay on Ba/F3 EGFR NPH ins cells (setting [7]); 35.7 nM with WT EGFR cell line A-431 (setting [8]); 149 nM in the assay with Ba/F3 EGFR ASV ins cells (setting [9]). Besides, the IC50 in assay [3] was 81.5 nM; on EGFR L858R&T790M, 1.1 nM; in [5] it was 303 nM.

On to `C=CC(=O)Nc1cc(Nc2nccc(Nc3cc(Cl)c(F)cc3C(C)(C)O)n2)c(OC)cc1N(C)C[C@H]1C[C@H](C)CN1C` [Compound 90, N-(5-(4-(5-chloro-4-fluoro-2-(2-hydroxypropan-2-yl)phenylamino)pyrimidin-2-ylamino)-2-((((2R,4S)-1,4-dimethylpyrrolidin-2-yl)methyl)(methyl)amino)-4-methoxyphenyl) acrylamide formic acid salt], for which the 50% growth inhibitory concentration (GI50) turned out to be 284 nM in [1]; 6.1 nM in assay [2] (read-out: EGFR L858R and T790M mutation GI50 (nM)); 82.7 nM in the assay with OCI-LY-10 cells; 76.4 nM in the assay on Ba/F3 EGFR NPH ins cells (read-out: EGFR Exon20 NPH insertion GI50 (nM)); 45 nM with TMD-8 cells; 83.8 nM with Ri-1 cells. The GI50 with WT EGFR cell line A-431 (read-out: EGFR WT A431 GI50 (nM)) was 59.4 nM; in the assay with Ba/F3 EGFR ASV ins cells (read-out: EGFR Exon20 ASV insertion GI50 (nM)) it was 83.1 nM; in the assay on DB cells, more than 3000 nM. Also, the results for the IC50 in assay [3], in assay [4] and in assay [5] were 30.8 nM, 57.2 nM and 27.6 nM, respectively.
